Values joined by “and” are separate entries in the source; they are usually repeats but may differ in a detail not shown here. Equal values may be shown once. Read-outs that look alike come from different tables or passages of the source.
Columns and labels:
[1] = cited from earlier work
[2] = Renal impairment study: safety and tolerability; type: in vivo, human
[3] = type: in vivo, human; conditions: for AUC / clearance / Cmax / Vd / half-life: 0.5 mg, single 0.5 mg IV; for AUC: AUC0‐t; for AUC / Cmax: dose-normalized to 1 mg; for clearance: CL; for Vd: Vz; for half-life: t½
[4] = human plasma; cited from earlier work
[5] = type: in vivo, human; conditions: for Tmax / AUC / clearance / Cmax / Vd / half-life: human, plasma, iv; for AUC: AUC0‐t; for AUC / clearance / Cmax / Vd / half-life: ESRD subjects, single 0.5 mg IV; for AUC / Cmax: dose-normalized to 1 mg; for clearance: CL; for Vd: Vz; for half-life: t½
[6] = Hepatic impairment study: safety and tolerability; type: in vivo, human
μ receptor = conditions: major metabolites of oliceridine; ref data on file; cited from earlier work
[7] = human, plasma, iv, arithmetic mean ± SD, mild hepatic impairment
[8] = human, plasma, iv, arithmetic mean ± SD, moderate hepatic impairment
[9] = human, plasma, iv, arithmetic mean ± SD, severe hepatic impairment
[10] = human, plasma, iv, geometric mean (%CVb), severe hepatic impairment
[11] = human, plasma, iv, geometric mean (%CVb), mild hepatic impairment
[12] = human, plasma, iv, geometric mean (%CVb), moderate hepatic impairment
[13] = ESRD subjects/healthy subjects, ANCOVA
[14] = ESRD subjects/healthy subjects, ANCOVA, dose-adjusted
[15] = mild hepatic impairment, 0.5 mg IV, 10 subjects
[16] = moderate hepatic impairment, 0.5 mg IV, 10 subjects
[17] = severe hepatic impairment, 0.5 mg IV, 6 subjects

COc1ccsc1CNCC[C@@]1(c2ccccn2)CCOC2(CCCC2)C1 [Oliceridine]
Share of the metabolites eliminated in the urine ([1]; remainder eliminated in the feces): Approximately 70% | At least 1 TEAE, no. of events ([2]; ESRD, 0.5 mg IV, 9 subjects): 2 no. of events | Dizziness, subjects ([2]; ESRD, 0.5 mg IV, 9 subjects): 0 | Euphoria, subjects ([2]; ESRD, 0.5 mg IV, 9 subjects): 0 | Fatigue, no. of events ([2]; ESRD, 0.5 mg IV, 9 subjects): 1 no. of events | Fatigue, subjects ([2]; ESRD, 0.5 mg IV, 9 subjects): 1 (11%) n (%) | Feeling of relaxation, subjects ([2]; ESRD, 0.5 mg IV, 9 subjects): 0 | Headache, subjects ([2]; ESRD, 0.5 mg IV, 9 subjects): 0 | Nausea, no. of events ([2]; ESRD, 0.5 mg IV, 9 subjects): 1 no. of events | Nausea, subjects ([2]; ESRD, 0.5 mg IV, 9 subjects): 1 (11%) n (%) | Pain in extremity, subjects ([2]; ESRD, 0.5 mg IV, 9 subjects): 0 | Subjects with TEAEs by maximum severity: Mild ([2]; ESRD, 0.5 mg IV, 9 subjects): 2 (22%) n (%) | Subjects with TEAEs by maximum severity: Moderate ([2]; ESRD, 0.5 mg IV, 9 subjects): 0 | Subjects with TEAEs by maximum severity: Severe ([2]; ESRD, 0.5 mg IV, 9 subjects): 0 | Subjects with at least 1 TEAE ([2]; ESRD, 0.5 mg IV, 9 subjects): 2 (22%) n (%) | TEAEs by maximum severity: Mild, no. of events ([2]; ESRD, 0.5 mg IV, 9 subjects): 2 no. of events | Total number of mild TEAEs, overall ([2]; all 17 subjects of the renal study): 11 | Subjects who experienced TEAEs, overall ([2]; all subjects of the renal study (6 of 17)): 35.3% | Dizziness, no. of events ([2]; healthy, 1 mg IV, 8 subjects): 1 no. of events | Dizziness, subjects ([2]; healthy, 1 mg IV, 8 subjects): 1 (12.5%) n (%) | Euphoria, no. of events ([2]; healthy, 1 mg IV, 8 subjects): 2 no. of events | Euphoria, subjects ([2]; healthy, 1 mg IV, 8 subjects): 2 (25%) n (%) | Fatigue, no. of events ([2]; healthy, 1 mg IV, 8 subjects): 2 no. of events | Fatigue, subjects ([2]; healthy, 1 mg IV, 8 subjects): 2 (25%) n (%) | Feeling of relaxation, no. of events ([2]; healthy, 1 mg IV, 8 subjects): 1 no. of events | Feeling of relaxation, subjects ([2]; healthy, 1 mg IV, 8 subjects): 1 (12.5%) n (%) | Headache, no. of events ([2]; healthy, 1 mg IV, 8 subjects): 1 no. of events | Headache, subjects ([2]; healthy, 1 mg IV, 8 subjects): 1 (12.5%) n (%) | Nausea, no. of events ([2]; healthy, 1 mg IV, 8 subjects): 3 no. of events | Nausea, subjects ([2]; healthy, 1 mg IV, 8 subjects): 2 (25%) n (%) | Pain in extremity, no. of events ([2]; healthy, 1 mg IV, 8 subjects): 1 no. of events | Pain in extremity, subjects ([2]; healthy, 1 mg IV, 8 subjects): 1 (12.5%) n (%) | Subjects with TEAEs by maximum severity: Mild ([2]; healthy, 1 mg IV, 8 subjects): 4 (50%) n (%) | Subjects with TEAEs by maximum severity: Moderate ([2]; healthy, 1 mg IV, 8 subjects): 0 | Subjects with TEAEs by maximum severity: Severe ([2]; healthy, 1 mg IV, 8 subjects): 0 | TEAEs by maximum severity: Mild, no. of events ([2]; healthy, 1 mg IV, 8 subjects): 9 no. of events | CL, GM ratio Mild:Healthy (90%CI) ([3]; ANOVA): 1.05 (0.77, 1.43) | CL, GM ratio Moderate:Healthy (90%CI) ([3]; ANOVA): 0.80 (0.59, 1.09) | CL, GM ratio Severe:Healthy (90%CI) ([3]; ANOVA): 0.99 (0.71, 1.38) | t½, GM ratio Mild:Healthy (90%CI) ([3]; ANOVA): 1.26 (0.96, 1.66) | t½, GM ratio Moderate:Healthy (90%CI) ([3]; ANOVA): 2.09 (1.59, 2.75) | AUC0‐t, GM ratio Mild:Healthy (90%CI) ([3]; dose-normalized, ANOVA): 0.93 (0.68, 1.28) | AUC0‐∞, GM ratio Mild:Healthy (90%CI) ([3]; dose-normalized, ANOVA): 0.95 (0.70, 1.29) | AUC0‐∞, GM ratio Moderate:Healthy (90%CI) ([3]; dose-normalized, ANOVA): 1.25 (0.92, 1.70) | AUC0‐∞, GM ratio Severe:Healthy (90%CI) ([3]; dose-normalized, ANOVA): 1.01 (0.72, 1.41) | Cmax, GM ratio Mild:Healthy (90%CI) ([3]; dose-normalized, ANOVA): 1.19 (0.54, 2.60) | Cmax, GM ratio Moderate:Healthy (90%CI) ([3]; dose-normalized, ANOVA): 1.20 (0.55, 2.62) | Cmax, GM ratio Severe:Healthy (90%CI) ([3]; dose-normalized, ANOVA): 0.24 (0.10, 0.56) | AUC [3, 7]: 23.3 ± 7.9 ng·h/mL | AUC [3, 8]: 29.9 ± 11.3 ng·h/mL | AUC [3, 9]: 23.4 ± 10.3 ng·h/mL | AUC [3, 10]: 21.8 ng·h/mL | clearance [3, 7]: 807 mL/min | clearance [3, 8]: 595 mL/min | clearance [3, 9]: 738 mL/min | clearance [3, 11]: 742 mL/min | clearance [3, 12]: 565 mL/min | clearance [3, 10]: 697 mL/min | Cmax [3, 7]: 62.3 ± 48.8 ng/mL | Cmax [3, 8]: 46.6 ± 19.4 ng/mL | Cmax [3, 9]: 11.9 ± 10.6 ng/mL | Cmax [3, 11]: 41.4 ng/mL | Cmax [3, 12]: 41.9 ng/mL | Cmax [3, 10]: 8.4 ng/mL | Vd [3, 7]: 181 ± 81.2 L | Vd [3, 8]: 215 ± 39.1 L | Vd [3, 9]: 370 ± 130 L | Vd [3, 11]: 167 L | Vd [3, 12]: 212 L | Vd [3, 10]: 348 L | half-life [3, 7]: 2.7 ± 0.53 h | half-life [3, 8]: 4.7 ± 2.1 h | half-life [3, 9]: 6.3 ± 2.6 h | half-life [3, 11]: 2.6 h | half-life [3, 12]: 4.3 h | half-life [3, 10]: 5.8 h | AUC(0-t) ([3]; human, plasma, iv, 1 mg): 24.1 ± 7.5 ng·h/mL | Free fraction [4]: 23% | CL, ratio of geometric means [5, 13]: 81.2 | t½, ratio of geometric means [5, 13]: 128 | AUC0‐t, ratio of geometric means [5, 14]: 108 | AUC0‐∞, ratio of geometric means [5, 14]: 123 | Cmax, ratio of geometric means [5, 14]: 113 | Tmax ([5]; 0.5 mg): 0.25 h | AUC ([5]; 0.5 mg, arithmetic mean (SD)): 19.7 ng·h/mL | AUC ([5]; 0.5 mg, geometric mean (%CVb)): 19.1 ng·h/mL | clearance ([5]; 0.5 mg, arithmetic mean (SD)): 847 mL/min | clearance ([5]; 0.5 mg, geometric mean (%CVb)): 820 mL/min | Cmax ([5]; 0.5 mg, arithmetic mean (SD)): 9.96 ng/mL | Cmax ([5]; 0.5 mg, geometric mean (%CVb)): 9.87 ng/mL | Vd ([5]; 0.5 mg, arithmetic mean (SD)): 219 L | Vd ([5]; 0.5 mg, geometric mean (%CVb)): 212 L | half-life ([5]; 0.5 mg, arithmetic mean (SD)): 3.11 h | half-life ([5]; 0.5 mg, geometric mean (%CVb)): 2.99 h | Tmax ([5]; 1 mg): 0.25 h | At least 1 TEAE, no. of events ([6]; healthy, 1 mg IV, 8 subjects): 0 no. of events | Somnolence, no. of events ([6]; healthy, 1 mg IV, 8 subjects): 0 no. of events | Somnolence, subjects ([6]; healthy, 1 mg IV, 8 subjects): 0 (0%) n (%) | Subjects with TEAEs by maximum severity: Mild ([6]; healthy, 1 mg IV, 8 subjects): 0 (0%) n (%) | Subjects with TEAEs by maximum severity: Moderate ([6]; healthy, 1 mg IV, 8 subjects): 0 | Subjects with TEAEs by maximum severity: Severe ([6]; healthy, 1 mg IV, 8 subjects): 0 | Subjects with at least 1 TEAE ([6]; healthy, 1 mg IV, 8 subjects): 0 (0%) n (%) | TEAEs by maximum severity: Mild, no. of events ([6]; healthy, 1 mg IV, 8 subjects): 0 no. of events | Duration of somnolence TEAEs ([6]; mild hepatic impairment group, mild intensity, resolved completely): approximately 1 hour | At least 1 TEAE, no. of events [6, 15]: 2 no. of events | Somnolence, no. of events [6, 15]: 2 no. of events | Somnolence, subjects [6, 15]: 2 n (%) and 2 (20%) n (%) | Subjects with TEAEs by maximum severity: Mild [6, 15]: 2 (20%) n (%) | Subjects with TEAEs by maximum severity: Moderate [6, 15]: 0 | Subjects with TEAEs by maximum severity: Severe [6, 15]: 0 | Subjects with at least 1 TEAE [6, 15]: 2 (20%) n (%) | TEAEs by maximum severity: Mild, no. of events [6, 15]: 2 no. of events | At least 1 TEAE, no. of events [6, 16]: 0 no. of events | Somnolence, no. of events [6, 16]: 0 no. of events | Somnolence, subjects [6, 16]: 0 (0%) n (%) | Subjects with TEAEs by maximum severity: Mild [6, 16]: 0 (0%) n (%) | Subjects with TEAEs by maximum severity: Moderate [6, 16]: 0 | Subjects with TEAEs by maximum severity: Severe [6, 16]: 0 | Subjects with at least 1 TEAE [6, 16]: 0 (0%) n (%) | TEAEs by maximum severity: Mild, no. of events [6, 16]: 0 no. of events | At least 1 TEAE, no. of events [6, 17]: 0 no. of events | Somnolence, no. of events [6, 17]: 0 no. of events | Somnolence, subjects [6, 17]: 0 (0%) n (%) | Subjects with TEAEs by maximum severity: Mild [6, 17]: 0 (0%) n (%) | Subjects with TEAEs by maximum severity: Moderate [6, 17]: 0 | Subjects with TEAEs by maximum severity: Severe [6, 17]: 0 | Subjects with at least 1 TEAE [6, 17]: 0 (0%) n (%) | TEAEs by maximum severity: Mild, no. of events [6, 17]: 0 no. of events

NCC[C@@]1(c2ccccn2)CCOC2(CCCC2)C1 [TRV0109662]
Share of total by AUC ([1]; major metabolite of oliceridine): ≥ 10% | Share of total drug‐related material ([1]; major metabolite of oliceridine, ref data on file): 17% | Activity at the μ receptor (μ receptor): inactive

Source: publication PMC7383509 (Clinical Pharmacology in Drug Development, 2019)
